This note sets out measurements from article PMC10708540, “Determination and Kinetic Characterization of a New Potential Inhibitor for AmsI Protein Tyrosine Phosphatase from the Apple Pathogen Erwinia amylovora” (Molecules, 2023).

For series [1], the system named is O=[N+]([O-])c1ccc(OP(=O)(O)O)cc1. The series can be described thus: purified protein.
Series [2] deals with T1, EaAmsI (AmsI, Low Molecular Weight Protein Tyrosine Phosphatase) (Erwinia amylovora, UniProt Q46630).
T1 construct: recombinant EaAmsI (gene from strain Ea273, pETM-11 vector)
The series can be described thus: pNPP hydrolysis at […] nm, Michaelis-Menten global fit with competitive inhibition model. Format: biochemical.

For series [3], the target named is T1, EaAmsI (AmsI, Low Molecular Weight Protein Tyrosine Phosphatase). The series can be described thus: pNPP hydrolysis, dose-response IC50. Format: biochemical.

T1 sequence (Q46630 whole entry): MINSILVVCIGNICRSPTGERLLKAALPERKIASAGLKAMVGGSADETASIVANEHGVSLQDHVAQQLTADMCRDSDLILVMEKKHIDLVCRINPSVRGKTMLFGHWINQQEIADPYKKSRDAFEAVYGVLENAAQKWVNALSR

What is called Km is the concentration of substrate that gives half-maximal velocity. For “EaAmsI (AmsI, Low Molecular Weight Protein Tyrosine Phosphatase) (Erwinia amylovora)”, the Michaelis-Menten constant (Km) in series [1] was 15.1 ± 1.3 mM.
Broadly, the Ki is a measure of affinity in units of concentration, obtained from inhibition or displacement. Higher therefore signals a looser hold on the target. For `CCCCCCCO[C@@H]1O[C@H](CO)[C@@H](O)[C@H](O)[C@H]1O` [N7G, (2R,3R,4S,5S,6R)-2-(heptyloxy)-6-(hydroxymethyl)oxane-3,4,5-triol], affinity in series [2] was put at a Ki of 0.0078 ± 0.0006 mM.
What is called IC50 is the concentration that gives 50% inhibition. Read a low IC50 as greater potency in that assay. `CCCCCCCCO[C@@H]1O[C@H](CO)[C@@H](O)[C@H](O)[C@H]1O` [N8G, (2R,3S,4S,5R,6R)-2-(hydroxymethyl)-6-(octyloxy)oxane-3,4,5-triol] came in with an IC50 in series [3] of 9.5 ± 1.3 mM.
